# Patent US5034212A, “Method of imaging using a radioactive glucosamine derivative” (Nihon Medi-Physics Co., Ltd., priority 1989, dated 1991)
# What was measured:
# brain = assay: Behavior in mouse: TLC of brain and blood homogenates after tail vein injection; type: in vivo, ddY strain male mice
# Description: ^125 I-ABGA was injected into ddY strain male mice at the tail vein, and after a certain period of time, the mice were sacrificed. The blood was collected from the heart, and the brain was taken out. The blood and the brain were respectively admixed with 5% trichloroacetic acid (1 ml), homogenized and centrifuged at 3,000 rpm and at 0° C. for 10 minutes. The supernatant was analyzed by thin layer chromatography using a mixture of chloroform and methanol (7:3 by volume) as a developing solvent. The results are shown in FIGS. 1A and 1B of the accompanying drawings. In FIGS. 1A and 1B showing respectively the analytical results on the brain homogenate and the blood homogenate, the solid line, the dotted line and the solid-dot mixed line represent respectively the ones of 5 minutes, 60 minutes and 180 minutes after the administration.
# [1] = Body distribution of ^125 I-ABGA in mouse; type: in vivo, ddY strain male mice; details: i.v.
# [2] = Body distribution of BGA in mouse; type: in vivo
# hexokinase = assay: Phosphorylation with hexokinase / inhibition of glucose phosphorylation; type: biochemical
# [3] = Octanol/phosphate buffer distribution ratio (lipophilic property); type: physicochemical
# Description: To a mixture of octanol (3 ml) and phosphate buffer (PBS) (3 ml), ^125 I-ABGA as obtained in Example 2 was added, followed by stirring and allowing to stand. The radioactivity of each layer was measured, and the distribution ratio was determined. The results are shown in Table 1, from which it is understood that ^125 I-ABGA is lypophilic.
# [4] = Stability in buffer of pH 5, 7 or 9 at 37° C., TLC analysis; type: physicochemical
# Description: A solution of ^125 I-ABGA in dimethylsulfoxide was added to a buffer of pH 5, 7 or 9 and incubated at 37° C. for a certain period of time.
# Swine liver esterase = assay: Enzymatic deesterification with swine liver esterase, TLC analysis; type: in vitro ADME; details: pH 7.4, 37° C.; for Proportion of peak component ABGA / Proportion of peak component BGA / Proportion of peak component I^- / Proportion of peak component Others: esterase 100 U
# Description: Swine liver esterase (100 U) was added to phosphate buffer (pH 7.4), and ^125 I-ABGA (50 kBq) was added thereto, followed by incubation at 37° C. for a certain period of time. The reaction mixture was sampled, and ethanol was added thereto, followed by centrifugation.
smiles,measurement,setting,value
"CC(=O)OC[C@H]1OC(OC(C)=O)[C@H](NC(=O)c2cccc(I)c2)[C@@H](OC(C)=O)[C@@H]1OC(C)=O (stereo partly drawn) [ABGA, N-(m-iodobenzoyl)-1,3,4,6-tetra-O-acetyl-D-glucosamine]",TLC peak of ABGA over time,"brain; mouse brain, 5 to 180 minutes",decreases with the lapse of time
same,TLC peaks in brain,"brain; mouse brain, 5 minutes after i.v. administration",the peaks of ABGA and BGA appear in brain 5 minutes after the administration
same,Transfer to brain and deesterification,"brain; mouse, i.v.","transferred to brain at the initial stage of administration and thereafter deesterified, whereby it behaves as BGA"
same,Brain/blood ratio with lapse of time,[1],increase of the brain/blood ratio with the lapse of time
same,Clearance from the blood,[1],rapid clearance from the blood
same,Retention in the brain,[1],retention in the brain
same,Uptake in the brain in comparison with BGA,[1],higher uptake in the brain
"O=C(N[C@H]1C(O)O[C@H](CO)[C@@H](O)[C@@H]1O)c1cccc(I)c1 (stereo partly drawn) [BGA, N-m-iodobenzoyl-D-glucosamine]",Passage through the blood-brain barrier,[2]; in vivo,can hardly pass through the blood-brain barrier (BBB) in vivo
same,Disappearance of radioactivity from brain,[2]; mouse,parallel to the blood clearance
same,Stomach accumulation as index of deiodization / stability in body,[2]; mouse,low in stomach accumulation as the index of deiodization and thus stable in a body
same,Inhibition to the ATP action,hexokinase,antagonistic inhibition to the ATP action
same,Inhibition to the phosphorylation of glucose,hexokinase,non-antagonistic inhibition to the phosphorylation of glucose
same,Phosphorylation with hexokinase,hexokinase,not phosphorylated with hexokinase
"CC(=O)OC[C@H]1OC(OC(C)=O)[C@H](NC(=O)c2cccc([125I])c2)[C@@H](OC(C)=O)[C@@H]1OC(C)=O (stereo partly drawn) [^125 I-ABGA, ^125 I-labeled N-(m-iodobenzoyl)-1,3,4,6-tetra-O-acetyl-D-glucosamine]",Lipophilic property,[3]; octanol/PBS,lypophilic
same,Distribution ratio in PBS and octanol,[3]; pH 7.0,189.0
same,Distribution ratio in PBS and octanol,[3]; pH 7.4,193.8
same,Distribution ratio in PBS and octanol,[3]; pH 8.10,206.5
same,Stability: peak component ABGA,"[4]; 15 min, pH 5, 37° C.",99.1
same,Stability: peak component I^-,"[4]; 15 min, pH 5, 37° C.",0
same,Stability: peak component Others,"[4]; 15 min, pH 5, 37° C.",0
same,Stability: peak component ABGA,"[4]; 15 min, pH 7, 37° C.",99.9
same,Stability: peak component I^-,"[4]; 15 min, pH 7, 37° C.",0
same,Stability: peak component Others,"[4]; 15 min, pH 7, 37° C.",0
same,Stability: peak component ABGA,"[4]; 15 min, pH 9, 37° C.",53.9
same,Stability: peak component I^-,"[4]; 15 min, pH 9, 37° C.",10.2
same,Stability: peak component Others,"[4]; 15 min, pH 9, 37° C.",31.5
same,Stability: peak component ABGA,"[4]; 60 min, pH 5, 37° C.",98.5
same,Stability: peak component I^-,"[4]; 60 min, pH 5, 37° C.",0
same,Stability: peak component Others,"[4]; 60 min, pH 5, 37° C.",0
same,Stability: peak component ABGA,"[4]; 60 min, pH 7, 37° C.",99.3
same,Stability: peak component I^-,"[4]; 60 min, pH 7, 37° C.",0
same,Stability: peak component Others,"[4]; 60 min, pH 7, 37° C.",0
same,Stability: peak component ABGA,"[4]; 60 min, pH 9, 37° C.",25.5
same,Stability: peak component I^-,"[4]; 60 min, pH 9, 37° C.",19.6
same,Stability: peak component Others,"[4]; 60 min, pH 9, 37° C.",49.0
same,Stability: peak component ABGA,"[4]; 180 min, pH 5, 37° C.",98.4
same,Stability: peak component I^-,"[4]; 180 min, pH 5, 37° C.",0
same,Stability: peak component Others,"[4]; 180 min, pH 5, 37° C.",0
same,Stability: peak component ABGA,"[4]; 180 min, pH 7, 37° C.",97.8
same,Stability: peak component I^-,"[4]; 180 min, pH 7, 37° C.",0.9
same,Stability: peak component Others,"[4]; 180 min, pH 7, 37° C.",0
same,Stability: peak component ABGA,"[4]; 180 min, pH 9, 37° C.",2.2
same,Stability: peak component I^-,"[4]; 180 min, pH 9, 37° C.",31.1
same,Stability: peak component Others,"[4]; 180 min, pH 9, 37° C.",57.5
same,Stability at high pH,"[4]; high pH (pH 9), 37° C.",hydrolyzed to BGA with deiodization at high pH
same,Stability at other pH,"[4]; pH 5 and 7, 37° C., up to 3 hours",stable (i.e. neither hydrolyzed nor deiodized) even after 3 hours at other pH
same,Proportion of peak component ABGA,Swine liver esterase; 10 min,0
same,Proportion of peak component BGA,Swine liver esterase; 10 min,87.3 ± 3.1
same,Proportion of peak component I^-,Swine liver esterase; 10 min,0.9 ± 0.5
same,Proportion of peak component Others,Swine liver esterase; 10 min,10.6 ± 2.9
same,Proportion of peak component ABGA,Swine liver esterase; 60 min,0
same,Proportion of peak component BGA,Swine liver esterase; 60 min,54.5 ± 3.7
same,Proportion of peak component I^-,Swine liver esterase; 60 min,6.5 ± 0.5
same,Proportion of peak component Others,Swine liver esterase; 60 min,33.7 ± 2.4
same,Proportion of peak component ABGA,Swine liver esterase; 180 min,0
same,Proportion of peak component BGA,Swine liver esterase; 180 min,7.2 ± 2.2
same,Proportion of peak component I^-,Swine liver esterase; 180 min,33.4 ± 1.6
same,Proportion of peak component Others,Swine liver esterase; 180 min,42.9 ± 0.4
same,Enzymatic deesterification,Swine liver esterase; swine liver esterase,deesterified in a very short time to give N-m-iodobenzoyl-D-glucosamine (BGA)
same,"Body distribution, Blood",[1]; 2 min,5.16 ± 0.97 % dose/g organ
same,"Body distribution, Brain",[1]; 2 min,0.53 ± 0.14 % dose/g organ
same,"Body distribution, Heart",[1]; 2 min,4.88 ± 0.97 % dose/g organ
same,"Body distribution, Intestine",[1]; 2 min,3.94 ± 1.19 % dose/g organ
same,"Body distribution, Kidney",[1]; 2 min,14.87 ± 2.31 % dose/g organ
same,"Body distribution, Liver",[1]; 2 min,15.32 ± 4.43 % dose/g organ
same,"Body distribution, Pancreas",[1]; 2 min,4.54 ± 1.03 % dose/g organ
same,"Body distribution, Stomach",[1]; 2 min,1.87 ± 0.68 % dose/g organ
same,"Body distribution, Blood",[1]; 5 min,7.16 ± 0.13 % dose/g organ
same,"Body distribution, Brain",[1]; 5 min,0.55 ± 0.11 % dose/g organ
same,"Body distribution, Heart",[1]; 5 min,4.45 ± 0.52 % dose/g organ
same,"Body distribution, Intestine",[1]; 5 min,4.58 ± 0.60 % dose/g organ
same,"Body distribution, Kidney",[1]; 5 min,11.39 ± 3.08 % dose/g organ
same,"Body distribution, Liver",[1]; 5 min,12.85 ± 1.71 % dose/g organ
same,"Body distribution, Pancreas",[1]; 5 min,4.40 ± 0.28 % dose/g organ
same,"Body distribution, Stomach",[1]; 5 min,0.59 ± 0.23 % dose/g organ
same,"Body distribution, Blood",[1]; 15 min,6.64 ± 0.31 % dose/g organ
same,"Body distribution, Brain",[1]; 15 min,0.47 ± 0.06 % dose/g organ
same,"Body distribution, Heart",[1]; 15 min,3.35 ± 0.27 % dose/g organ
same,"Body distribution, Intestine",[1]; 15 min,5.89 ± 0.47 % dose/g organ
same,"Body distribution, Kidney",[1]; 15 min,7.00 ± 0.49 % dose/g organ
same,"Body distribution, Liver",[1]; 15 min,7.66 ± 0.86 % dose/g organ
same,"Body distribution, Pancreas",[1]; 15 min,3.16 ± 0.30 % dose/g organ
same,"Body distribution, Stomach",[1]; 15 min,1.88 ± 0.52 % dose/g organ
same,"Body distribution, Blood",[1]; 30 min,4.16 ± 2.42 % dose/g organ
same,"Body distribution, Brain",[1]; 30 min,0.43 ± 0.02 % dose/g organ
same,"Body distribution, Heart",[1]; 30 min,2.69 ± 0.20 % dose/g organ
same,"Body distribution, Intestine",[1]; 30 min,6.26 ± 0.96 % dose/g organ
same,"Body distribution, Kidney",[1]; 30 min,6.37 ± 3.04 % dose/g organ
same,"Body distribution, Liver",[1]; 30 min,5.82 ± 0.64 % dose/g organ
same,"Body distribution, Pancreas",[1]; 30 min,2.59 ± 0.13 % dose/g organ
same,"Body distribution, Stomach",[1]; 30 min,1.86 ± 0.13 % dose/g organ
same,"Body distribution, Blood",[1]; 60 min,3.67 ± 0.40 % dose/g organ
same,"Body distribution, Brain",[1]; 60 min,0.33 ± 0.05 % dose/g organ
same,"Body distribution, Heart",[1]; 60 min,1.87 ± 0.37 % dose/g organ
same,"Body distribution, Intestine",[1]; 60 min,6.88 ± 0.53 % dose/g organ
same,"Body distribution, Kidney",[1]; 60 min,3.81 ± 0.75 % dose/g organ
same,"Body distribution, Liver",[1]; 60 min,4.94 ± 0.90 % dose/g organ
same,"Body distribution, Pancreas",[1]; 60 min,2.10 ± 0.34 % dose/g organ
same,"Body distribution, Stomach",[1]; 60 min,1.74 ± 0.83 % dose/g organ
same,"Body distribution, Blood",[1]; 180 min,0.91 ± 0.55 % dose/g organ
same,"Body distribution, Brain",[1]; 180 min,0.19 ± 0.08 % dose/g organ
same,"Body distribution, Heart",[1]; 180 min,0.75 ± 0.34 % dose/g organ
same,"Body distribution, Intestine",[1]; 180 min,4.60 ± 2.84 % dose/g organ
same,"Body distribution, Kidney",[1]; 180 min,1.08 ± 0.67 % dose/g organ
same,"Body distribution, Liver",[1]; 180 min,2.25 ± 1.44 % dose/g organ
same,"Body distribution, Pancreas",[1]; 180 min,0.76 ± 0.35 % dose/g organ
same,"Body distribution, Stomach",[1]; 180 min,1.27 ± 0.80 % dose/g organ
